Measurements from patent US20190284168A1, “PYRAZOLE DERIVATIES AS SGC STIMULATORS” (IRONWOOD PHARMACEUTICALS, INC., priority 2014, published 2019).

Tests used:
[1] = biological target: T1, soluble guanylate cyclase (sGC) (Homo sapiens, UniProt Q02108+Q02153); assay: sGC-HEK-cGMP assay with LC/MS detection; format: cell-based; details: HEK293 whole cells, LC/MS detection of cGMP, 10 μM DETA-NONOate; 50% of high control response (30 μM Compound Y); read-out: Absolute EC50 (nM)- binned (~)
T1 construct: endogenously expressing soluble guanylate cyclase (sGC); endogenous in cells; host or cells: HEK293
T1 sequence (Q02153 1-619): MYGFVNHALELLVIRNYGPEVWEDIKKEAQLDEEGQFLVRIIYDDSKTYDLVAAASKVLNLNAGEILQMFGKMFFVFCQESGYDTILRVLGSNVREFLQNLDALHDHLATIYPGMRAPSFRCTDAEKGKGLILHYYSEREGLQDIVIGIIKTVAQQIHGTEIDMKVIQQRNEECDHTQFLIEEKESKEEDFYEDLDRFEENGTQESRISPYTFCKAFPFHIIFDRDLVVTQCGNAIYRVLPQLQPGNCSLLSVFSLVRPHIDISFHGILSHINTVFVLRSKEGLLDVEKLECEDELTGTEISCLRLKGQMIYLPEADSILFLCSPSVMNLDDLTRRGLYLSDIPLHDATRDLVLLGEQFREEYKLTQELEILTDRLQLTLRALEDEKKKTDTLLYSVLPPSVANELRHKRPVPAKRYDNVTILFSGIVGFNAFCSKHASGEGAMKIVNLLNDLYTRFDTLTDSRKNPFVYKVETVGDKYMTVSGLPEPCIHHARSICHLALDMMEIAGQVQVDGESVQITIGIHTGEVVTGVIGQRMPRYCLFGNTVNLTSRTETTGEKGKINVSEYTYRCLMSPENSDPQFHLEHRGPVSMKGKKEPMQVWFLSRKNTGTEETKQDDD
T1 sequence (Q02108 1-690): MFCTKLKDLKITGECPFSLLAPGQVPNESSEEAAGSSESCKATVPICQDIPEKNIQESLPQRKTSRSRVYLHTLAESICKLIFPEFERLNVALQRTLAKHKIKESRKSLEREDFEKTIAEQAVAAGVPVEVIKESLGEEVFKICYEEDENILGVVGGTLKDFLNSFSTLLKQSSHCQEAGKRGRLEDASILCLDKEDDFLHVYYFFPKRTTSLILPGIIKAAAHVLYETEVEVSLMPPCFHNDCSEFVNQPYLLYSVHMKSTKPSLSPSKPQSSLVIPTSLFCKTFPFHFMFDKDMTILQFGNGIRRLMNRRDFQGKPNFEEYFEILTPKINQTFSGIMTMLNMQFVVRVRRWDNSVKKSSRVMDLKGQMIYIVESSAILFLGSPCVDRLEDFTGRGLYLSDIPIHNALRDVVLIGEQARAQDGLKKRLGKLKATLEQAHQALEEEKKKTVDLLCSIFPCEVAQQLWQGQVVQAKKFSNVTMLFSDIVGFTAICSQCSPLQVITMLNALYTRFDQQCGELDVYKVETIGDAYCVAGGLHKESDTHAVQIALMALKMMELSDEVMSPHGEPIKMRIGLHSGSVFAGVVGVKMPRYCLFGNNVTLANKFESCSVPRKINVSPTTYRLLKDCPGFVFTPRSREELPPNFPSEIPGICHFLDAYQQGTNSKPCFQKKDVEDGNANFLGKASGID

[2] = biological target: T2, human recombinant soluble guanylate cyclase enzyme α1β1 (Homo sapiens, UniProt Q02108+Q02153); assay: Purified human recombinant sGC α1β1 enzyme assay in the presence of DETA-NONOate (cGMP HTRF); format: biochemical; details: 30 uM DETA NONOate; 50% of maximal response of 30 uM Compound Y; read-out: sGC_Enz_HTRF_a1b1 EC50/IC50 Abs (Norm) (nM) Binned
T2 construct: purchased Enzo Life Sciences ALX-201-177
T2 sequence (Q02108 1-690): T1 sequence (Q02108 1-690)
T2 sequence (Q02153 1-619): T1 sequence (Q02153 1-619)
Description: Purified human recombinant soluble guanylate cyclase enzyme α1β1 (h sGC) obtained from Enzo Life Sciences (P/N: ALX-201-177) was used to evaluate the activity of test compounds. The assay reactions contained 0.1 M Tris (pH 8.0), 0.5 mg/mL BSA, 2 mM DTT, 4 mM MgCl2, 30 uM DETA NONOate (Enzo Life Science P/N: ALX-430-014), and 12.5 ng/ml human soluble guanylate cyclase enzyme. […] Guanosine 5'-triphosphate (Sigma-Aldrich P/N: […]) was added to a final concentration of 300 μM and enzyme reactions were incubated (100 μL, 384-well plate format) at 37° C. for 20 minutes. The controls contained 3% DMSO (low control), or 30 uM of Compound Y (high control). After the 20 minute incubation, the reaction was stopped with the addition of 100 μL of ice cold 20% acetic acid. cGMP concentrations in all samples were determined using the cGMP HTRF (Cisbio P/N: 62GM2PEC) assay per manufacturer's instructions. A cGMP standard curve was fit using a 4-parameter fit (log(inhibitor) vs. response-variable slope) using GraphPad Prism Software v.6. Samples were diluted appropriately to ensure that values fell within the linear range of the standard curve. Data were fit using a 4-parameter fit (log(agonist) vs. response-variable slope) using GraphPad Prism Software v.6. The EC50 was interpolated from the curve fit and is defined as the concentration at which the compound elicits 50% of the maximal response of the 30 uM of Compound Y, the high control compound.

[3] = test system: lambs with acute pulmonary hypertension; details: cited from earlier work; for effect on mean arterial pressure / pulmonary vasodilation / transpulmonary cGMP release / systemic arterial oxygenation: inhaled microparticles, awake lambs; for effect on mean arterial pressure / pulmonary vasodilation / transpulmonary cGMP release: U-46619 infusion
sGC enzyme = biological target: T3, sGC enzyme (Homo sapiens, UniProt Q02108+Q02153); assay: cGMP GloSensor cell-based assay, 384-well format; details: read-out: sGC_HEK_GloSensor EC50/IC50 Abs (Norm) (nM) Binned (~)
T3 construct: host or cells: HEK293 cells expressing GloSensor 40F cGMP
T3 sequence (Q02153 1-619): T1 sequence (Q02153 1-619)
T3 sequence (Q02108 1-690): T1 sequence (Q02108 1-690)
Text: Human embryonic kidney cells (HEK293) cells expressing GloSensor™ 40F cGMP (Part No: CS182801, Promega) were used to evaluate the activity of test compounds. The luminescent biosensors (engineered luciferase) that were incorporated into these cells detect cGMP formed by the compounds stimulating the sGC enzyme and emit luminescence.
cGMP GloSensor cells were maintained in Dulbecco's Modification of Eagle's Medium (DMEM) supplemented with fetal bovine serum (FBS) (10% final) and hygromycine (200 ug/ml). The day before assay, cells were plated in DMEM with 10% FBS in a 50 μL volume at a density of 1.5×10^4 cells/well in a poly-D-lysine coated 384-well flat white-bottom plate (Corning Cat No 35661). Cells were incubated overnight at 37° C. in a humidified chamber with 5% CO2. The next day, medium was removed and cells were replaced with 40 ul/well of GloSensor™, 2 mM (Promega Cat No E1291). Cells were treated for 90 minutes at 25° C. to allow the substrate to equilibrate in the cells. Test compounds and Diethylenetriamine NONOate (DETA-NONOate) was diluted to 3 mM (20×) in serum-free CO2 independent medium and serially diluted at 4× dilutions to create 5× dose curve from which 10 ul was added to the wells (x μM concentration for test compound solution and 10 μM concentration for DETA-NONOate solution; wherein x is one of the following final concentrations). • 30000 nM • 7500 nM • 1875 nM • 468.75 nM • 117.19 nM • 29.29 nM • 7.32 nM • 1.83 nM • 0.46 nM • 0.114 nM • 0.029 nM
For the kinetics studies, luminescense was measured right away for 0.2 sec per well with Envision (Perkin Elmer model No). For endpoint SAR screening, data were collected after 55 min incubation at room temperature.
Data analysis was carried out as indicated above in Example 2A.

Structure (SMILES): O=C(Cc1c[nH]nc1O)Nc1ccnc(-c2cc(-c3ccon3)n(Cc3ccccc3F)n2)n1 [Compound 45]
- EC50 [1]: > 1000 nM
- EC50 [2]: ≤ 1000 nM

Structure (SMILES): O=C(CCl)NCC(=O)Nc1ccnc(-c2cc(-c3ccon3)n(Cc3ccccc3F)n2)n1 [Compound 32]
- EC50 [1]: 100 to 1000 nM
- EC50 [2]: 100 to 1000 nM

Structure (SMILES): Nc1nc(-c2nn(Cc3ccccc3F)c3ncccc23)ncc1C1CC1 [BAY 41-2272]
- effect on mean arterial pressure [3]: without significant effect
- pulmonary vasodilation [3]: dose dependent pulmonary vasodilation
- transpulmonary cGMP release [3]: increased

Structure (SMILES): Cn1c(=O)c(CC(N)=O)cn1-c1nc(-c2cc(-c3ccon3)n(Cc3ccccc3F)n2)ncc1F [Compound 56]
- EC50 [1]: > 1000 nM
- EC50 [2]: ≤ 1000 nM

Structure (SMILES): C[C@](N)(CNc1nc(-c2cc(-c3ccon3)n(Cc3ccccc3F)n2)ncc1F)C(F)(F)F [Compound 108]
- EC50 [1]: 100 to 1000 nM
- EC50 [2]: 100 to 1000 nM

Structure (SMILES): CC(=O)c1cc(-c2ncc(F)c(NCC(=O)O)n2)nn1Cc1ccccc1F [Compound 86]
- EC50 [1]: > 1000 nM
- EC50 [2]: ≤ 1000 nM

Structure (SMILES): O=c1onc2cnc3ccccc3n12 [ODQ, 1H-[1,2,4]oxadiazolo[4,3-a]quinoxalin-1-one]
- pulmonary vasodilator effect of iNO ([3]; intravenous administration): markedly reduced

Structure (SMILES): CS(=O)(=O)C1(C(=O)Nc2ccnc(-c3cc(-c4ccon4)n(Cc4ccccc4F)n3)n2)CC1 [Compound 50]
- EC50 [1]: > 1000 nM
- EC50 [2]: ≤ 1000 nM

Structure (SMILES): Fc1ccccc1Cn1nc(-c2ncc(N3CCOCC3)cn2)cc1-c1ccon1 [Compound 37]
- EC50 [1]: > 30000 nM
- EC50 [2]: ≤ 1000 nM

Structure (SMILES): CC(=O)c1cc(-c2ncc(F)c(O)n2)nn1Cc1cccc(F)c1F [Compound 83]
- EC50 [1]: > 1000 nM
- EC50 [2]: ≤ 1000 nM

Structure (SMILES): O=C(O)CCCCN(CCc1ccccc1OCc1ccc(CCc2ccccc2)cc1)Cc1ccc(C(=O)O)cc1 [BAY 58-2667]
- pulmonary vasodilation and transpulmonary cGMP release after treatment with ODQ ([3]; inhaled microparticles after ODQ): greatly enhanced
- effect on mean arterial pressure [3]: without significant effect
- pulmonary vasodilation [3]: dose dependent pulmonary vasodilation
- transpulmonary cGMP release [3]: increased
- systemic arterial oxygenation [3]: increased

Structure (SMILES): O=S1(=O)Cc2cnc(-c3cc(-c4ccon4)n(Cc4ccccc4F)n3)nc2C1 [Compound 3]
- EC50 [1]: > 30000 nM
- EC50 [2]: ≤ 1000 nM

Structure (SMILES): O=C(O)C1Cn2c(nnc2C(F)(F)F)CN1c1nc(-c2cc(-c3ccon3)n(Cc3ccccc3F)n2)ncc1F (stereo not shown) [Compound 62]
- EC50 [1]: > 1000 nM
- EC50 [2]: ≤ 1000 nM

Structure (SMILES): NC(=O)CC(=O)Nc1ccnc(-c2cc(-c3ccon3)n(Cc3ccccc3F)n2)n1 [Compound 17]
- EC50 [1]: > 30000 nM
- EC50 [2]: ≤ 1000 nM

Structure (SMILES): NC(=O)C(=O)Nc1ccnc(-c2cc(-c3ccon3)n(Cc3ccccc3F)n2)n1 [Compound 4]
- EC50 [1]: > 1000 nM
- EC50 [2]: ≤ 1000 nM

Structure (SMILES): O=C(O)Cc1c[nH]n(-c2nc(-c3cc(-c4ccon4)n(Cc4ccccc4F)n3)ncc2F)c1=O [Compound 39]
- EC50 [1]: > 1000 nM
- EC50 [2]: ≤ 1000 nM

Structure (SMILES): Nc1nc(-c2nn(Cc3ccccc3F)c3ncccc23)nc(N)c1N1CCOCC1 [BAY 41-8543]
- magnitude and duration of pulmonary vasodilation induced by iNO ([3]; after inhaling microparticles, combined with iNO): augmented
- effect on mean arterial pressure [3]: without significant effect
- pulmonary vasodilation [3]: dose dependent pulmonary vasodilation
- transpulmonary cGMP release [3]: increased
- systemic arterial oxygenation [3]: increased

Structure (SMILES): Fc1ccccc1Cn1nc(-c2ncc(F)c(Nc3nnc(C(F)(F)F)s3)n2)cc1-c1ccon1 [Compound 11]
- EC50 [1]: > 1000 nM
- EC50 [2]: ≤ 1000 nM

Structure (SMILES): O=C(Nc1ccnc(-c2cc(-c3ccon3)n(Cc3ccccc3F)n2)n1)c1cc(O)no1 [Compound 27]
- EC50 [1]: > 1000 nM
- EC50 [2]: ≤ 1000 nM

Structure (SMILES): Oc1nnc2n1CCN(c1nc(-c3cc(-c4ccon4)n(Cc4ccccc4F)n3)ncc1F)C2 [Compound 44]
- EC50 [1]: < 100 nM
- EC50 [2]: 100 to 1000 nM

Structure (SMILES): O=C(O)Cc1cn(-c2nc(-c3cc(-c4ccon4)n(Cc4ccccc4F)n3)ncc2F)[nH]c1=O [Compound 38]
- EC50 [1]: 100 to 1000 nM
- EC50 [2]: ≤ 1000 nM

Structure (SMILES): Oc1nc(-c2cc(-c3ccon3)n(CC(F)(F)F)n2)ncc1F [Compound 214]
- EC50 (sGC enzyme): > 1000 nM

Structure (SMILES): CC(=O)c1cc(-c2ncc(F)c(N3CCS(=O)(=O)CC3)n2)nn1Cc1ccccc1F [Compound 78]
- EC50 [1]: > 1000 nM
- EC50 [2]: ≤ 1000 nM

Structure (SMILES): CC(C)(C)OC(=O)C[C@H]1C[C@@H](CCNc2nc(-c3cc(-c4ccon4)n(Cc4ccccc4F)n3)ncc2F)OC(C)(C)O1 [Compound 132]
- EC50 (sGC enzyme): < 100 nM

Structure (SMILES): CC(=O)c1cc(-c2ncc(F)c(NCC(F)(F)F)n2)nn1Cc1ccccc1F [Compound 204]
- EC50 (sGC enzyme): 100 to 1000 nM

Structure (SMILES): O=c1[nH]c(-c2cc(-c3ccon3)n(CCC(F)(F)C(F)(F)F)n2)ncc1F [Compound 128, 5-fluoro-2-(5-(isoxazol-3-yl)-1-(3,3,4,4,4-pentafluorobutyl)-1H-pyrazol-3-yl)pyrimidin-4(3H)-one]
- EC50 (sGC enzyme): > 1000 nM

Structure (SMILES): O[C@@H]1CN(c2nc(-c3cc(-c4ccon4)n(Cc4ccccc4F)n3)ncc2F)C[C@H]1O (racemic) [Compound 167, trans-1-(5-fluoro-2-(1-(2-fluorobenzyl)-5-(isoxazol-3-yl)-1H-pyrazol-3-yl)pyrimidin-4-yl)pyrrolidine-3,4-diol]
- EC50 (sGC enzyme): < 100 nM
